{"source": "patent US20260265265A1", "about": "“NOVEL BENZIMIDAZOLONE DERIVATIVE COMPOUND AS AUTOTAXIN INHIBITOR” (LG CHEM, LTD., priority 2023, published 2026)"}
{"target": "T1, Recombinant Human ENPP-2/Autotaxin (Homo sapiens, UniProt Q13822)", "T1 construct": "purchased R&D systems 5255-EN", "experiment": "LysoPLD activity measurement (autotaxin enzyme inhibition, choline release, TOOS reagent)", "format": "biochemical", "settings": "LysoPLD inhibitory activity; substrate 14:0 LysoPC; absorbance at 555 nm", "method_in_brief": "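Enzyme and compound were preincubated for 30 min before adding 14:0 LysoPC substrate, diluted to 300 μM, for 90 minutes at 37° C. The choline product was quantified colorimetrically with TOOS reagent. Wells without compound held 1% DMSO.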", "units": {"IC50": "nM"}}
{"smiles": "O=C(O)c1cccc(Cn2c(=O)n(-c3ccc(N4CC(O)C4)cc3)c3c(F)c(Cl)ccc32)c1F", "note": "[Example 120, 3-((5-chloro-4-fluoro-3-(4-(3-hydroxyazetidin-1-yl)phenyl)-2-oxo-2,3-dihydro-1H-benzo[d]imidazol-1-yl)methyl)-2-fluorobenzoic acid]", "IC50": "10 to 100"}
{"smiles": "O=C(O)c1cccc(C2(n3c(=O)n(-c4ccc(C5=CCOCC5)cc4)c4cc(Cl)ccc43)CC2)c1", "note": "[Example 121, 3-(1-(5-chloro-3-(4-(3,6-dihydro-2H-pyran-4-yl)phenyl)-2-oxo-2,3-dihydro-1H-benzo[d]imidazol-1-yl)cyclopropyl)benzoic acid]", "IC50": "< 10"}
{"smiles": "O=C(O)c1cccc(C2(n3c(=O)n(-c4ccc(C5=CCOCC5)cc4)c4cc(Cl)ccc43)CC2)c1F", "note": "[Example 122, 3-(1-(5-chloro-3-(4-(3,6-dihydro-2H-pyran-4-yl)phenyl)-2-oxo-2,3-dihydro-1H-benzo[d]imidazol-1-yl)cyclopropyl)-2-fluorobenzoic acid]", "IC50": "< 10"}
{"smiles": "O=C(O)c1cccc(C2(n3c(=O)n(-c4ccc(C5=CCOC5)cc4)c4cc(Cl)ccc43)CC2)c1F", "note": "[Example 123, 3-(1-(5-chloro-3-(4-(2,5-dihydrofuran-3-yl)phenyl)-2-oxo-2,3-dihydro-1H-benzo[d]imidazol-1-yl)cyclopropyl)-2-fluorobenzoic acid]", "IC50": "< 10"}
{"smiles": "O=C(O)c1cccc(C2(n3c(=O)n(-c4ccc(C5=CCOC5)cc4)c4cc(Cl)ccc43)CC2)c1", "note": "[Example 124, 3-(1-(5-chloro-3-(4-(2,5-dihydrofuran-3-yl)phenyl)-2-oxo-2,3-dihydro-1H-benzo[d]imidazol-1-yl)cyclopropyl)benzoic acid]", "IC50": "< 10"}
{"smiles": "O=C(O)c1ccc(Cn2c(=O)n(-c3ccc(N4CCOCC4)cc3)c3c(F)c(Cl)ccc32)cc1", "note": "[Example 125, 4-((5-chloro-4-fluoro-3-(4-morpholinophenyl)-2-oxo-2,3-dihydro-1H-benzo[d]imidazol-1-yl)methyl)benzoic acid]", "IC50": "100 to 1000"}
{"smiles": "O=C(O)c1cccc(C2(n3c(=O)n(-c4ccc(C(=O)N5CCOCC5)cc4)c4cc(Cl)ccc43)CC2)c1", "note": "[Example 126, 3-(1-(5-chloro-3-(4-(morpholine-4-carbonyl)phenyl)-2-oxo-2,3-dihydro-1H-benzo[d]imidazol-1-yl)cyclopropyl)benzoic acid]", "IC50": "< 10"}
{"smiles": "C[C@H]1COCCN1C(=O)c1ccc(-n2c(=O)n(C3(c4cccc(C(=O)O)c4)CC3)c3ccc(Cl)cc32)cc1", "note": "[Example 127, (S)-3-(1-(5-chloro-3-(4-(3-methylmorpholine-4-carbonyl)phenyl)-2-oxo-2,3-dihydro-1H-benzo[d]imidazol-1-yl)cyclopropyl)benzoic acid]", "IC50": "< 10"}
{"smiles": "O=C(O)c1cccc(C2(n3c(=O)n(-c4ccc(C(=O)N5CC(O)C5)cc4)c4cc(Cl)ccc43)CC2)c1", "note": "[Example 128, 3-(1-(5-chloro-3-(4-(3-hydroxyazetidine-1-carbonyl)phenyl)-2-oxo-2,3-dihydro-1H-benzo[d]imidazol-1-yl)cyclopropyl)benzoic acid]", "IC50": "< 10"}
{"smiles": "O=C(O)c1cccc(C2(n3c(=O)n(-c4ccc(C(=O)N5CC(F)(F)C5)cc4)c4cc(Cl)ccc43)CC2)c1", "note": "[Example 129, 3-(1-(5-chloro-3-(4-(3,3-difluoroazetidine-1-carbonyl)phenyl)-2-oxo-2,3-dihydro-1H-benzo[d]imidazol-1-yl)cyclopropyl)benzoic acid]", "IC50": "< 10"}
{"smiles": "O=C(O)c1cccc(C2(n3c(=O)n(-c4ccc(C(=O)N5CCC(F)(F)C5)cc4)c4cc(Cl)ccc43)CC2)c1", "note": "[Example 130, 3-(1-(5-chloro-3-(4-(3,3-difluoropyrrolidine-1-carbonyl)phenyl)-2-oxo-2,3-dihydro-1H-benzo[d]imidazol-1-yl)cyclopropyl)benzoic acid]", "IC50": "< 10"}
{"smiles": "O=C(O)c1cccc(C2(n3c(=O)n(-c4ccc(C(=O)N5CCC(F)(F)CC5)cc4)c4cc(Cl)ccc43)CC2)c1", "note": "[Example 131, 3-(1-(5-chloro-3-(4-(4,4-difluoropiperidine-1-carbonyl)phenyl)-2-oxo-2,3-dihydro-1H-benzo[d]imidazol-1-yl)cyclopropyl)benzoic acid]", "IC50": "< 10"}
{"smiles": "O=C(O)c1cccc(C2(n3c(=O)n(-c4ccc(C(=O)N5CCC(F)(F)C5)cc4)c4cc(Cl)ccc43)CC2)c1F", "note": "[Example 132, 3-(1-(5-chloro-3-(4-(3,3-difluoropyrrolidine-1-carbonyl)phenyl)-2-oxo-2,3-dihydro-1H-benzo[d]imidazol-1-yl)cyclopropyl)-2-fluorobenzoic acid]", "IC50": "< 10"}
{"smiles": "O=C(O)c1cccc(C2(n3c(=O)n(-c4ccc(C(=O)N5CCC(F)(F)CC5)cc4)c4cc(Cl)ccc43)CC2)c1F", "note": "[Example 133, 3-(1-(5-chloro-3-(4-(4,4-difluoropiperidine-1-carbonyl)phenyl)-2-oxo-2,3-dihydro-1H-benzo[d]imidazol-1-yl)cyclopropyl)-2-fluorobenzoic acid]", "IC50": "< 10"}
{"smiles": "O=C(O)c1cccc(C2(n3c(=O)n(-c4ccc(C(=O)N5CC(O)C5)cc4)c4cc(Cl)ccc43)CC2)c1F", "note": "[Example 134, 3-(1-(5-chloro-3-(4-(3-hydroxyazetidine-1-carbonyl)phenyl)-2-oxo-2,3-dihydro-1H-benzo[d]imidazol-1-yl)cyclopropyl)-2-fluorobenzoic acid]", "IC50": "< 10"}
{"smiles": "O=C(O)c1cccc(C2(n3c(=O)n(-c4ccc(C(=O)N5CC6(COC6)C5)cc4)c4cc(Cl)ccc43)CC2)c1F", "note": "[Example 135, 3-(1-(3-(4-(2-oxa-6-azaspiro[3.3]heptane-6-carbonyl)phenyl)-5-chloro-2-oxo-2,3-dihydro-1H-benzo[d]imidazol-1-yl)cyclopropyl)-2-fluorobenzoic acid]", "IC50": "< 10"}
{"smiles": "C[C@H]1COCCN1C(=O)c1ccc(-n2c(=O)n(C3(c4cccc(C(=O)O)c4F)CC3)c3ccc(Cl)cc32)cc1", "note": "[Example 136, (S)-3-(1-(5-chloro-3-(4-(3-methylmorpholine-4-carbonyl)phenyl)-2-oxo-2,3-dihydro-1H-benzo[d]imidazol-1-yl)cyclopropyl)-2-fluorobenzoic acid]", "IC50": "< 10"}
{"smiles": "O=C(O)c1cccc(C2(n3c(=O)n(-c4ccc(C(=O)N5CC6(COC6)C5)cc4)c4cc(Cl)ccc43)CC2)c1", "note": "[Example 137, 3-(1-(3-(4-(2-oxa-6-azaspiro[3.3]heptane-6-carbonyl)phenyl)-5-chloro-2-oxo-2,3-dihydro-1H-benzo[d]imidazol-1-yl)cyclopropyl)benzoic acid]", "IC50": "< 10"}
{"smiles": "O=C(O)c1cccc(C2(n3c(=O)n(-c4ccc(-c5nnc(C6CCC(F)(F)CC6)o5)cc4)c4cc(Cl)ccc43)CC2)c1", "note": "[Example 138, 3-(1-(5-chloro-3-(4-(5-(4,4-difluorocyclohexyl)-1,3,4-oxadiazol-2-yl)phenyl)-2-oxo-2,3-dihydro-1H-benzo[d]imidazol-1-yl)cyclopropyl)benzoic acid]", "IC50": "< 10"}
{"smiles": "CN(C)C(=O)Cc1ccc(-n2c(=O)n(C3(c4cccc(C(=O)O)c4)CC3)c3ccc(Cl)cc32)cc1", "note": "[Example 139, 3-(1-(5-chloro-3-(4-(2-(dimethylamino)-2-oxoethyl)phenyl)-2-oxo-2,3-dihydro-1H-benzo[d]imidazol-1-yl)cyclopropyl)benzoic acid]", "IC50": "< 10"}
{"smiles": "O=C(O)c1cccc(Cn2c(=O)n(-c3ccc(N4CCN(C(=O)C5CC5)CC4)cc3)c3cc(Cl)ccc32)c1F", "note": "[Example 140, 3-((5-chloro-3-(4-(4-(cyclopropanecarbonyl)piperazin-1-yl)phenyl)-2-oxo-2,3-dihydro-1H-benzo[d]imidazol-1-yl)methyl)-2-fluorobenzoic acid]", "IC50": "10 to 100"}
{"smiles": "CCC(=O)N1CCN(c2ccc(-n3c(=O)n(Cc4cccc(C(=O)O)c4F)c4ccc(Cl)cc43)cc2)CC1", "note": "[Example 141, 3-((5-chloro-2-oxo-3-(4-(4-propionylpiperazin-1-yl)phenyl)-2,3-dihydro-1H-benzo[d]imidazol-1-yl)methyl)-2-fluorobenzoic acid]", "IC50": "10 to 100"}
{"smiles": "O=C(O)c1cccc(Cn2c(=O)n(-c3ccc(N4CCN(C(=O)C5CCC5)CC4)cc3)c3cc(Cl)ccc32)c1F", "note": "[Example 142, 3-((5-chloro-3-(4-(4-(cyclobutanecarbonyl)piperazin-1-yl)phenyl)-2-oxo-2,3-dihydro-1H-benzo[d]imidazol-1-yl)methyl)-2-fluorobenzoic acid]", "IC50": "10 to 100"}
{"smiles": "O=C(O)c1cccc(Cn2c(=O)n(-c3ccc(N4CCN(C(=O)C5CCC(F)(F)CC5)CC4)cc3)c3cc(Cl)ccc32)c1F", "note": "[Example 143, 3-((5-chloro-3-(4-(4-(4,4-difluorocyclohexane-1-carbonyl)piperazin-1-yl)phenyl)-2-oxo-2,3-dihydro-1H-benzo[d]imidazol-1-yl)methyl)-2-fluorobenzoic acid]", "IC50": "10 to 100"}
{"smiles": "O=C(O)c1cccc(C2(n3c(=O)n(-c4nc5ccccc5s4)c4cc(Cl)ccc43)CC2)c1F", "note": "[Example 144, 3-(1-(3-(benzo[d]thiazol-2-yl)-5-chloro-2-oxo-2,3-dihydro-1H-benzo[d]imidazol-1-yl)cyclopropyl)-2-fluorobenzoic acid]", "IC50": "10 to 100"}
{"smiles": "O=C(O)c1cccc(C2(n3c(=O)n(-c4ccc(CN5CCOCC5)cc4)c4cc(Cl)ccc43)CC2)c1", "note": "[Example 145, 3-(1-(5-chloro-3-(4-(morpholinomethyl)phenyl)-2-oxo-2,3-dihydro-1H-benzo[d]imidazol-1-yl)cyclopropyl)benzoic acid]", "IC50": "10 to 100"}
{"smiles": "O=C(O)c1cccc(C2(n3c(=O)n(-c4ccc(N5CCCC5)cc4)c4cc(Cl)ccc43)CC2)c1", "note": "[Example 146, 3-(1-(5-chloro-2-oxo-3-(4-(pyrrolidin-1-yl)phenyl)-2,3-dihydro-1H-benzo[d]imidazol-1-yl)cyclopropyl)benzoic acid]", "IC50": "< 10"}
{"smiles": "O=C(O)c1cccc(C2(n3c(=O)n(-c4ccc(N5CCOCC5)cc4)c4cc(Cl)ccc43)CC2)c1", "note": "[Example 147, 3-(1-(5-chloro-3-(4-morpholinophenyl)-2-oxo-2,3-dihydro-1H-benzo[d]imidazol-1-yl)cyclopropyl)benzoic acid]", "IC50": "< 10"}
